In publication PMC12480666, “A robust platform streamlining aromatic noncanonical amino acid biosynthesis and genetic code expansion in Escherichia coli” (Nature Communications, 2025):

Target: T1, TyrB (aromatic amino acid aminotransferase) (Escherichia coli, UniProt P04693)
T1 construct: recombinant, purified from E. coli
T1 sequence (P04693 1-397): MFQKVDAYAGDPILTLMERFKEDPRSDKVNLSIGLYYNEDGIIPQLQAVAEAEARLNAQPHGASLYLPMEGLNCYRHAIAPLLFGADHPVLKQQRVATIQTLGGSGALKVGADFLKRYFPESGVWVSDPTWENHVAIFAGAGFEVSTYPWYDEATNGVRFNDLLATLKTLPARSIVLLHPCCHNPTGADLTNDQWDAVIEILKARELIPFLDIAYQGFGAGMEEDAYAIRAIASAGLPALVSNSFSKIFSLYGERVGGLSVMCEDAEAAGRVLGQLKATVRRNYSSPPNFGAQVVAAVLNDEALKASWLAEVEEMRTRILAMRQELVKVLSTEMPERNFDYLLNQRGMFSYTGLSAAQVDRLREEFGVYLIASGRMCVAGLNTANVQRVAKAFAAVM
Assay: in vitro cascade of purified PpLTA, RpTD and TyrB
Type: biochemical
Conditions: final transamination step

| SMILES | in vitro cascade of purified PpLTA, RpTD and TyrB (from 1 mM para-methylbenzaldehyde) | in vitro cascade of purified PpLTA, RpTD and TyrB (from 1 mM para-iodobenzaldehyde) |
| --- | --- | --- |
| Cc1ccc(C[C@H](N)C(=O)O)cc1 [p-methylphenylalanine] | the enzyme cascade efficiently converted the substrates into their corresponding amino acids | – |
| N[C@@H](Cc1ccc(I)cc1)C(=O)O [compound 19, p-iodophenylalanine] | – | the enzyme cascade efficiently converted the substrates into their corresponding amino acids |
